Measured values reported in patent publication US10231453B2, “5-substituted imidazole derivatives” (BAYER CROPSCIENCE AKTIENGESELLSCHAFT, priority 2015, dated 2019).
Where two headings read alike, the source gives them in different places. Marks after values point to notes of the source that are not given here.

Tests used:
[1] = Measurement of LogP values by HPLC on reversed phase columns (EEC directive 79/831 Annex V.A8); type: physicochemical; details: for chromatographic logP: method [a]: LC-UV, acidic range, 0.1% formic acid in water and acetonitrile as eluent, Table 1
Experimental: Measurement of Log P values was performed as outlined above.

Puccinia recondita = assay: In vivo preventive test on Puccinia recondita (brown rust on wheat), Examples C and R3; details: preventive spray, evaluated 11 days after inoculation; for pest or weed control at 500 ppm / pest or weed control at 100 ppm: Puccinia recondita, 264 h
Septoria tritici = assay: In vivo preventive test on Septoria tritici (leaf spot on wheat), Examples E, Q3 and R5; details: Zymoseptoria tritici, 576 h, preventive spray, evaluated 24 days after inoculation
Sphaerotheca fuliginea = assay: In vivo preventive test on Sphaerotheca fuliginea (powdery mildew on cucurbits), Examples F and R6; details: Podosphaera fuliginea, 360 h, preventive spray, evaluated 15 days after inoculation
Uromyces appendiculatus = assay: In vivo preventive test on Uromyces appendiculatus (bean rust), Examples G and R7; details: 264 h, preventive spray, evaluated 11 days after inoculation
[2] = 500 ppm of active ingredient, wheat, read-out: efficacy
[3] = 500 ppm of active ingredient, gherkin, read-out: efficacy
[4] = 500 ppm of active ingredient, bean, read-out: efficacy
[5] = Example R3, wheat, 100 ppm, read-out: Efficacy in %
[6] = Example R3, wheat, 500 ppm, read-out: Efficacy in %
[7] = Example R5, wheat, read-out: Efficacy in %
[8] = Example R5, wheat, 500 ppm, read-out: Efficacy in %
[9] = Example R6, gherkin, read-out: Efficacy in %
[10] = Example R6, gherkin, 500 ppm, read-out: Efficacy in %
[11] = Example R7, bean, read-out: Efficacy in %
[12] = Example R7, bean, 500 ppm, read-out: Efficacy in %

N#Cc1cncn1CC(O)(Cc1ccncc1Br)C1(Cl)CC1 (racemic) [Example I-46]
LogP [1]: 1.94^[a]

N#Cc1cncn1CC(O)(Cc1ccc(Oc2ccc(Cl)cc2)cc1Cl)C1(Cl)CC1 (racemic) [Example I-53]
LogP [1]: 4.54^[a]

O=C(Cc1ccccc1F)c1cncn1CC(O)(Cc1ccccc1F)C1(Cl)CC1 (racemic) [Example I-134]
LogP [1]: 3.60^[a]

OC(Cc1ccc(Cl)cc1F)(Cn1cnc(Br)c1)C1(Cl)CC1 (racemic) [drawing 98]
Efficacy in % (Puccinia recondita; Example R3, wheat, 100 ppm): 0%
Efficacy in % (Puccinia recondita; Example R3, wheat, 500 ppm): 94%

N#Cc1cn(CC(O)(Cc2ccc(Cl)cc2F)C2(Cl)CC2)cn1 (racemic) [drawing 100]
Efficacy in % (Puccinia recondita; Example R3, wheat, 100 ppm): 81%
Efficacy in % (Puccinia recondita; Example R3, wheat, 500 ppm): 94%

OC(Cc1ccc(Cl)cc1F)(Cn1cnc(Cl)c1)C1(Cl)CC1 (racemic) [drawing 102]
Efficacy in % (Puccinia recondita; Example R3, wheat, 100 ppm): 0%
Efficacy in % (Puccinia recondita; Example R3, wheat, 500 ppm): 67%

OC(Cc1ccc(Cl)cc1F)(Cn1cncc1Cl)C1(Cl)CC1 (single isomer, unassigned) [Example I-113]
LogP [1]: 2.54^[a]

N#Cc1cncn1CC(O)(Cc1ccccc1F)C1(Cl)CC1 (single isomer, unassigned) [Example I-132]
LogP [1]: 2.59^[a]

N#Cc1cncn1CC(O)(Cc1ccccc1F)C1(Cl)CC1 (single isomer, unassigned) [Example I-133]
LogP [1]: 2.59^[a]

OC(Cc1ccccc1Cl)(Cn1cncc1-c1ccccc1)C1(Cl)CC1 (centres unmarked) [Example I-09]
pest or weed control at 500 ppm (Septoria tritici; [2]): 70 to 79%
pest or weed control at 500 ppm (Sphaerotheca fuliginea; [3]): 90 to 100%
pest or weed control at 500 ppm (Uromyces appendiculatus; [4]): 90 to 100%

N#Cc1cncn1CC(O)(C(F)c1ccccc1F)C1(Cl)CC1 (centres unmarked) [Example I-31]
pest or weed control at 500 ppm (Puccinia recondita; [2]): 90 to 100%
pest or weed control at 500 ppm (Septoria tritici; [2]): 90 to 100%
pest or weed control at 500 ppm (Sphaerotheca fuliginea; [3]): 90 to 100%
pest or weed control at 500 ppm (Uromyces appendiculatus; [4]): 90 to 100%

N#Cc1cncn1CC(O)(Cc1ccc(Cl)cc1Cl)C1(Cl)CC1 (centres unmarked) [Example I-52]
pest or weed control at 500 ppm (Puccinia recondita; [2]): 80 to 89%
pest or weed control at 500 ppm (Septoria tritici; [2]): 90 to 100%
pest or weed control at 500 ppm (Sphaerotheca fuliginea; [3]): 90 to 100%
pest or weed control at 500 ppm (Uromyces appendiculatus; [4]): 90 to 100%

N#Cc1cncn1CC(O)(Cc1cc(Cl)nc(Cl)c1)C1(Cl)CC1 (centres unmarked) [Example I-61]
pest or weed control at 500 ppm (Puccinia recondita; [2]): 70 to 79%
pest or weed control at 500 ppm (Septoria tritici; [2]): 90 to 100%
pest or weed control at 500 ppm (Sphaerotheca fuliginea; [3]): 90 to 100%
pest or weed control at 500 ppm (Uromyces appendiculatus; [4]): 90 to 100%

N#Cc1cncn1CC(O)(Cc1ccc(-c2ccccc2)cc1)C1(Cl)CC1 (centres unmarked) [Example I-63]
chromatographic logP [1]: 3.68

N#Cc1cncn1CC(O)(Cc1ccccc1Cl)C1CCC1 (centres unmarked) [Example I-81]
pest or weed control at 500 ppm (Puccinia recondita; [2]): 90 to 100%
pest or weed control at 500 ppm (Septoria tritici; [2]): 90 to 100%
pest or weed control at 500 ppm (Sphaerotheca fuliginea; [3]): 90 to 100%
pest or weed control at 500 ppm (Uromyces appendiculatus; [4]): 90 to 100%

CC(C)(C)CC(O)(Cc1ccccc1Cl)Cn1cncc1C#N (centres unmarked) [Example I-83]
chromatographic logP [1]: 3.55

CC(C)(C)CC(O)(Cc1ccc(Cl)cc1)Cn1cncc1C#N (centres unmarked) [Example I-86]
chromatographic logP [1]: 3.37

N#Cc1cncn1CC(O)(Cc1ccc(F)c(F)c1F)C1(F)CC1 (centres unmarked) [Example I-93]
chromatographic logP [1]: 2.52

N#Cc1cncn1CC(O)(Cc1cccc(Cl)c1F)C1(F)CC1 (centres unmarked) [Example I-94]
chromatographic logP [1]: 2.68

N#Cc1cncn1CC(O)(Cc1ccc(Cl)cc1F)C1CC1 (centres unmarked) [Example I-115]
pest or weed control at 500 ppm (Puccinia recondita; [2]): 90 to 100%
pest or weed control at 500 ppm (Septoria tritici; [2]): 90 to 100%
pest or weed control at 500 ppm (Sphaerotheca fuliginea; [3]): 90 to 100%
pest or weed control at 500 ppm (Uromyces appendiculatus; [4]): 90 to 100%

N#Cc1cncn1CC(O)(Cc1ccc(F)cc1F)C1CCC1 (centres unmarked) [Example I-127]
pest or weed control at 500 ppm (Puccinia recondita; [2]): 80 to 89%
pest or weed control at 500 ppm (Septoria tritici; [2]): 90 to 100%
pest or weed control at 500 ppm (Sphaerotheca fuliginea; [3]): 90 to 100%
pest or weed control at 500 ppm (Uromyces appendiculatus; [4]): 90 to 100%

OC(Cc1ccccc1Cl)(Cn1cnc(Br)c1)C1(Cl)CC1 (centres unmarked) [drawing 87]
pest or weed control at 100 ppm (Puccinia recondita; [5]): 75%
pest or weed control at 500 ppm (Puccinia recondita; [6]): 81%

Cc1cn(CC(O)(Cc2ccccc2Cl)C2(Cl)CC2)cn1 (centres unmarked) [drawing 89]
pest or weed control at 100 ppm (Puccinia recondita; [5]): 29%
pest or weed control at 500 ppm (Puccinia recondita; [6]): 86%

N#Cc1cn(CC(O)(Cc2ccccc2Cl)C2(Cl)CC2)cn1 (centres unmarked) [drawing 91]
pest or weed control at 100 ppm (Puccinia recondita; [5]): 0%
pest or weed control at 500 ppm (Puccinia recondita; [6]): 83%

C#Cc1cn(CC(O)(Cc2ccccc2F)C2(Cl)CC2)cn1 (centres unmarked) [drawing 93]
pest or weed control at 100 ppm (Puccinia recondita; [5]): 0%
pest or weed control at 500 ppm (Puccinia recondita; [6]): 13%

OC(Cc1ccccc1F)(Cn1cnc(Cl)c1)C1(Cl)CC1 (centres unmarked) [drawing 95]
pest or weed control at 100 ppm (Puccinia recondita; [5]): 0%
pest or weed control at 500 ppm (Puccinia recondita; [6]): 33%

OC(Cc1ccccc1F)(Cn1ccnc1Cl)C1(Cl)CC1 (centres unmarked) [drawing 96]
pest or weed control at 100 ppm (Puccinia recondita; [5]): 0%
pest or weed control at 500 ppm (Puccinia recondita; [6]): 0%

N#Cc1cn(CC(O)(Cc2ccccc2F)C2(Cl)CC2)cn1 (centres unmarked) [drawing 104]
pest or weed control at 100 ppm (Puccinia recondita; [5]): 11%
pest or weed control at 500 ppm (Puccinia recondita; [6]): 78%

OC(Cc1ccccc1Cl)(Cn1cnc(Br)c1)C1(Cl)CC1 (centres unmarked) [drawing 123]
pest or weed control at 100 ppm (Septoria tritici; [7]): 75%
pest or weed control at 500 ppm (Septoria tritici; [8]): 83%

Cc1cn(CC(O)(Cc2ccccc2Cl)C2(Cl)CC2)cn1 (centres unmarked) [drawing 125]
pest or weed control at 100 ppm (Septoria tritici; [7]): 17%
pest or weed control at 500 ppm (Septoria tritici; [8]): 33%

N#Cc1cn(CC(O)(Cc2ccccc2Cl)C2(Cl)CC2)cn1 (centres unmarked) [drawing 127]
pest or weed control at 100 ppm (Septoria tritici; [7]): 44%
pest or weed control at 500 ppm (Septoria tritici; [8]): 78%

C#Cc1cn(CC(O)(Cc2ccccc2F)C2(Cl)CC2)cn1 (centres unmarked) [drawing 129]
pest or weed control at 100 ppm (Septoria tritici; [7]): 63%
pest or weed control at 500 ppm (Septoria tritici; [8]): 63%

OC(Cc1ccccc1F)(Cn1cnc(Cl)c1)C1(Cl)CC1 (centres unmarked) [drawing 131]
pest or weed control at 100 ppm (Septoria tritici; [7]): 0%
pest or weed control at 500 ppm (Septoria tritici; [8]): 93%

OC(Cc1ccccc1F)(Cn1ccnc1Cl)C1(Cl)CC1 (centres unmarked) [drawing 132]
pest or weed control at 100 ppm (Septoria tritici; [7]): 20%
pest or weed control at 500 ppm (Septoria tritici; [8]): 96%

N#Cc1cn(CC(O)(Cc2ccccc2F)C2(Cl)CC2)cn1 (centres unmarked) [drawing 140]
pest or weed control at 100 ppm (Septoria tritici; [7]): 14%
pest or weed control at 500 ppm (Septoria tritici; [8]): 86%

OC(Cc1ccccc1Cl)(Cn1cnc(Br)c1)C1(Cl)CC1 (centres unmarked) [drawing 142]
pest or weed control at 100 ppm (Sphaerotheca fuliginea; [9]): 20%
pest or weed control at 500 ppm (Sphaerotheca fuliginea; [10]): 30%

Cc1cn(CC(O)(Cc2ccccc2Cl)C2(Cl)CC2)cn1 (centres unmarked) [drawing 144]
pest or weed control at 100 ppm (Sphaerotheca fuliginea; [9]): 0%
pest or weed control at 500 ppm (Sphaerotheca fuliginea; [10]): 30%

C#Cc1cn(CC(O)(Cc2ccccc2F)C2(Cl)CC2)cn1 (centres unmarked) [drawing 146]
pest or weed control at 100 ppm (Sphaerotheca fuliginea; [9]): 0%
pest or weed control at 500 ppm (Sphaerotheca fuliginea; [10]): 60%

OC(Cc1ccccc1F)(Cn1cnc(Cl)c1)C1(Cl)CC1 (centres unmarked) [drawing 148]
pest or weed control at 100 ppm (Sphaerotheca fuliginea; [9]): 60%
pest or weed control at 500 ppm (Sphaerotheca fuliginea; [10]): 98%

OC(Cc1ccccc1F)(Cn1ccnc1Cl)C1(Cl)CC1 (centres unmarked) [drawing 149]
pest or weed control at 100 ppm (Sphaerotheca fuliginea; [9]): 0%
pest or weed control at 500 ppm (Sphaerotheca fuliginea; [10]): 78%

N#Cc1cn(CC(O)(Cc2ccccc2F)C2(Cl)CC2)cn1 (centres unmarked) [drawing 157]
pest or weed control at 100 ppm (Sphaerotheca fuliginea; [9]): 95%
pest or weed control at 500 ppm (Sphaerotheca fuliginea; [10]): 95%

OC(Cc1ccccc1Cl)(Cn1cnc(Br)c1)C1(Cl)CC1 (centres unmarked) [drawing 159]
pest or weed control at 100 ppm (Uromyces appendiculatus; [11]): 56%
pest or weed control at 500 ppm (Uromyces appendiculatus; [12]): 47%

Cc1cn(CC(O)(Cc2ccccc2Cl)C2(Cl)CC2)cn1 (centres unmarked) [drawing 161]
pest or weed control at 100 ppm (Uromyces appendiculatus; [11]): 0%
pest or weed control at 500 ppm (Uromyces appendiculatus; [12]): 100%

N#Cc1cn(CC(O)(Cc2ccccc2Cl)C2(Cl)CC2)cn1 (centres unmarked) [drawing 163]
pest or weed control at 100 ppm (Uromyces appendiculatus; [11]): 25%
pest or weed control at 500 ppm (Uromyces appendiculatus; [12]): 50%

C#Cc1cn(CC(O)(Cc2ccccc2F)C2(Cl)CC2)cn1 (centres unmarked) [drawing 165]
pest or weed control at 100 ppm (Uromyces appendiculatus; [11]): 0%
pest or weed control at 500 ppm (Uromyces appendiculatus; [12]): 0%

OC(Cc1ccccc1F)(Cn1cnc(Cl)c1)C1(Cl)CC1 (centres unmarked) [drawing 167]
pest or weed control at 100 ppm (Uromyces appendiculatus; [11]): 0%
pest or weed control at 500 ppm (Uromyces appendiculatus; [12]): 0%

OC(Cc1ccccc1F)(Cn1ccnc1Cl)C1(Cl)CC1 (centres unmarked) [drawing 168]
pest or weed control at 100 ppm (Uromyces appendiculatus; [11]): 0%
pest or weed control at 500 ppm (Uromyces appendiculatus; [12]): 0%

N#Cc1cn(CC(O)(Cc2ccccc2F)C2(Cl)CC2)cn1 (centres unmarked) [drawing 176]
pest or weed control at 100 ppm (Uromyces appendiculatus; [11]): 25%
pest or weed control at 500 ppm (Uromyces appendiculatus; [12]): 56%
